SMILES strings stand for the structures.

The experiment deals with T1, Androgen receptor (Homo sapiens, UniProt P10275).
T1 sequence (P10275 whole entry): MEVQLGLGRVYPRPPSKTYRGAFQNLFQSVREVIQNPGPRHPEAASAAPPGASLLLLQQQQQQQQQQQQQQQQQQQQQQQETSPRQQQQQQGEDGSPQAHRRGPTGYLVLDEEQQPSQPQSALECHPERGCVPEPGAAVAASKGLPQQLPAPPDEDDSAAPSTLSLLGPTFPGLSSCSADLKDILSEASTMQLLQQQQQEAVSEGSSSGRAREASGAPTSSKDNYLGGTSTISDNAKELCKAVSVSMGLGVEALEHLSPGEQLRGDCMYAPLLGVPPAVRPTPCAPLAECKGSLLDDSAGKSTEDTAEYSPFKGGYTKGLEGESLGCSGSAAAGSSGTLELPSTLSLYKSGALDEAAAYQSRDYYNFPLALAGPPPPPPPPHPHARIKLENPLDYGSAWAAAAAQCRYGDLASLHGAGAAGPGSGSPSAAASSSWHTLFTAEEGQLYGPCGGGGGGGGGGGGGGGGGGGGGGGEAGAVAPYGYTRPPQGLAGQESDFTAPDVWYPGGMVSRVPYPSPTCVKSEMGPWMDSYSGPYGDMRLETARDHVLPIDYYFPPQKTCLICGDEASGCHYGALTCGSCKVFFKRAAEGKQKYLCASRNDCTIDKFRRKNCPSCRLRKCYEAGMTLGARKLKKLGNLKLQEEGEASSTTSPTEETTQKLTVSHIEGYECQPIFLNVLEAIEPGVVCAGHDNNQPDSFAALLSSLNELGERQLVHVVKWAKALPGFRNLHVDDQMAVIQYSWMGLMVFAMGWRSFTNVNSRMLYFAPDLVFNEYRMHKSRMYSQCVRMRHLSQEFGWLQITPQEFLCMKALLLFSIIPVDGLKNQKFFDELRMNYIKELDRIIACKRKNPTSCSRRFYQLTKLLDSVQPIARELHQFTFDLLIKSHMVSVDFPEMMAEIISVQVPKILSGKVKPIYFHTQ
Nature of the experiment: Antagonist activity at androgen receptor in human C4-2-PSA-rl cells incubated for 24 hrs in presence of androgen R1881 by dual-glo luciferase reporter gene assay. The format is cell-based.

For orientation: EC50 means the concentration giving half of the maximal effect. Take `Cc1ccc(Cl)cc1N1CCN(C(=O)[C@@H]2C[C@@H]2c2ccc(F)cc2)CC1`: the EC50 was 15.2 µM. The figure for `Cc1ccccc1N1CCN(C(=O)[C@H]2C[C@@H]2c2ccccc2)CC1` (relative stereo) is greater than 25 µM; for `Cc1ccccc1N1CCN(C(=O)COCc2c(C)noc2C)CC1` it is greater than 25 µM; for `Cc1noc(C)c1CSCC(=O)N1CCN(c2ccccc2)CC1` it is greater than 25 µM. Next, `Cc1cccc(N2CCN(C(=O)CSCc3c(C)noc3C)CC2)c1`: greater than 25 µM; `COc1ccccc1N1CCN(C(=O)CSCc2c(C)noc2C)CC1`: greater than 25 µM; `Cc1ccccc1N1CCN(C(=O)CN(C)Cc2ccccc2)CC1`: greater than 25 µM. The figure for `Cc1ccccc1N1CCN(C(=O)CSc2ccccc2)CC1` is greater than 25 µM; for `Cc1ccccc1N1CCN(C(=O)/C=C/c2ccccc2)CC1` it is greater than 25 µM; for `Cc1ccccc1N1CCN(C(=O)NCSCc2c(C)noc2C)CC1` it is greater than 25 µM. As for `Cc1ccc(Cl)cc1N1CCN(C(=O)[C@H]2C[C@H]2c2ccc(F)cc2)CC1`, the EC50 was determined as 1.7 µM. `Cc1ccccc1N1CCC(OC(=O)NCSCc2c(C)noc2C)CC1`: the EC50 was greater than 25 µM. Next, `Cc1ccc(Cl)cc1N1CCN(C(=O)C2CC2c2ccc(F)cc2)CC1` (racemic): 2.7 µM. As to `Cc1ccc(N2CCN(C(=O)CSCc3c(C)noc3C)CC2)cc1`, the half-maximal effective concentration (EC50) was greater than 25 µM. Next, `Cc1ccccc1N1CCN(C(=O)C[S+]([O-])Cc2c(C)noc2C)CC1` (stereo not given): greater than 25 µM.

For the origin of these results see ChEMBL document CHEMBL4431378, “Small Molecule Antagonists of the Nuclear Androgen Receptor for the Treatment of Castration-Resistant Prostate Cancer” (ACS Med Chem Lett, 2016).
